Assay results published in patent US9888679B2, “Protection of progenitor cells and regulation of their differentiation” (Proteobioactives Pty Ltd, priority 2007, dated 2018).

Key:
Primary progenitor cells = assay: Differentiation in adipogenic media: adipocyte formation, Oil Red O; assay type: cell-based, human; details: FIG. 8; for differentiation of progenitor cells into adipocytes: adipogenic media, 1.0, 5.0, 10 micrograms/mL
Protocol: FIG. 8. The Effects of Pentosan Polysulfate (PPS) on Human progenitor cell Differentiation: Adipocyte Formation. Primary progenitor cells were cultured in 96 well plates in non-adipogenic growth media (media control) or under adipogenic conditions (0.5 mM methylisobutylmethylxanthine, 0.5 μM hydrocortisone, and 60 μM indomethacin) in the presence of PPS at the indicated concentrations. On day 28, the presence of lipid laden adipocytes was determined using the lipophilic dye Oil Red O. The relative amount of solubilised lipid per μg of DNA/well was determined following the assessment of the total amount of DNA per well using a fluorogenic DNA stain (Hoeshst 33258). […] (A) Phase-contrast photomicrographs of Oil Red O labeled adipocytes at ×20 magnification.
The conditions required for the development of lipids from human bone marrow stromal cells in vitro have been previously described (Gimble J. Marrow stromal adipocytes. In: Marrow stromal cell culture. J N Beresford, Owen, M. E., ed. Cambridge University Press, Cambridge, pp 67-87 (1998)). Briefly, human progenitor cells were seeded into 96-well plates at a density of 8×10^3 cells per well in complete alpha-MEM growth media and were allowed to reach >90% confluence prior to addition of inductive media. Cells were cultured in adipogenic-inductive media comprised of complete alpha-MEM supplemented with 0.5 mM 3-Isobutyl-1-methyl-xanthine (IBMX), 60 microM Indomethacin, and 0.5 microM Hydrocortisone in the presence of a titration of PPS (0.0, 1.0, 5.0, 10 micrograms/mL). The inductive media was changed twice weekly for a period of 4 weeks. Cells were stained for the presence of lipid using Oil Red ‘O’.
Cells were cultured as described above and gently rinsed in 1×PBS (pH7.4) to avoid disruption of the cell monolayer. Cells were fixed in phosphate buffered formalin for 15 minutes at RT. The fixative was subsequently removed and lipid stained by adding 100 microL of freshly filtered Oil Red O (3 mg/mL; MP Biomedicals, Australia) for ≧2 hours at RT. […]

human progenitor cells = assay: IL-4/IFN-gamma induced apoptosis, Annexin V staining; assay type: cell-based
Protocol: FIG. 6. The Effects of Pentosan Polysulfate (PPS) on Human progenitor cells treated with apoptotic agents. Human progenitor cells were plated in serum-free media supplemented with PPS at the indicated concentrations. Progenitor cell apoptosis was induced by the addition of a combination of 30 ng/ml IL-4 plus 30,000 U/ml IFN-gamma. Following 5 days culture, cells were harvested by trypsinisation and viabilities assessed by Annexin V staining.
Human progenitor cells were plated in serum-free media supplemented with PPS at concentrations of 0, 1, 2, 5 and 10 micrograms/mL. Progenitor cell apoptosis was induced by the addition of a combination of 30 ng/ml IL-4 30,000 U/ml IFN gamma. Following 5 days culture, cells were harvested by trypsinisation and viabilities assessed by Annexin V staining as previously described (Kortesidis A, A Zannettino, S Isenmann, S Shi, T Lapidot and S Gronthos. (2005). Stromal-derived factor-1 promotes the growth, survival, and development of human bone marrow stromal stem cells. Blood 105:3793-3801).
The experiment was undertaken in a 96 well plate containing 50,000 progenitor cells/well.

[1] = test system: Human immunoselected Stro-1+ Progenitor cells; assay: Hyaluronan biosynthesis, 3H-glucosamine incorporation, Superdex-S200 before/after Hyalase, 9 day micromass; assay type: cell-based
Source text: FIG. 27. Chromatographic elution profiles showing the effects of polysulfated polysaccharides on the biosynthesis of Hyaluronan (HA) and by progenitor cells by measuring the incorporation of ^3H-glucosamine into HA. […] The % difference in areas under the profiles of the digested and pre-digested samples in the void volume fractions represents the amounts of ^3H-HA released into the media by the PPS concentration specified.
Human immunoselected Stro-1+ Progenitor cells (Mesoblast Ltd, Melbourne, Australia) were established in micromass cultures in 24 well plates using the method described above but seeding the progenitor cells at a density of 7×10^5 cells/well. After 24 hours in culture the media was changed and replaced with DMEM culture medium containing 10% FCS and 25 μg/ml gentamicin containing PPS (Bene-Arzneimittel, Munich, […]) which had been sterilised through a 0.22 μm filter. The cultures were incubated in 5% CO2/95% moist air at 37° C. for 8 days with media changes containing the indicated concentrations of PPS every 3 days. On the 8th day ^3H-glucosamine was added to culture medium containing the indicated concentrations of PPS to provide a solution containing 1.0 μCi/ml which was added to each well. The plates were incubated for a further 24 h. At termination of the cultures on day 9, media was collected into 5 ml capped tubes and stored at 4° C. prior to size exclusion chromatography as described below.
Two aliquots of 0.5 ml from each media sample were labelled A and B. 20 μl of 1 M acetic acid, pH 6.0 was added to all aliquots. 50 μl of reaction buffer (20 mM Na-acetate and 0.15 M NaCl, pH 6.0) was added to aliquot A and 50 μl of 5 TRU Streptomyces hyaluronidase (HYALASE) in reaction buffer was added to aliquot B. All samples were incubated at 60° C. for 3 h followed by boiling for 5 min to inactivate the added hyaluronidase. The samples were stored at −20° C. prior to gel filtration.
A Gel filtration column prepacked with Superdex-S200 was used to isolate and identify ^3H-HA and ^3H-PGs in culture media. Media samples were routinely centrifuged at high speed on a bench Microfuge for 10 min immediately before loading to the column. Samples (200 μl of each) were injected into the column through sample loop and the column was eluted with PBS buffer (0.15 M NaCl, 0.05 M Na2PO4, pH 7.2) at the flow rate of 0.2 ml/1 min. The column eluent was collected at 1.0 ml/fraction for total of 186 fractions and radioactivity was determined using a β-scintillation counter.

Q: What does the source list for pentosan polysulfate [PPS]?
A: adipocyte number (Oil Red O lipid per μg DNA) (Primary progenitor cells; adipogenic conditions, day 28, PPS in excess 1 ug/ml, p<0.01, ANOVA): statistically significant increase in adipocyte number; differentiation of progenitor cells into adipocytes (Primary progenitor cells): upregulation seen at all concentrations; differentiation of progenitor cells into adipocytes (Primary progenitor cells; listed as polysulfated polysaccharides): showed differentiated to adipocytes; PPS concentration with best results on apoptosis (human progenitor cells; FIG. 6): 10 µg/mL; reduction in IFN-gamma/IL-4-induced apoptosis (Annexin V positive cells) (human progenitor cells; PPS in excess 1 ug/ml, 5 days culture, FIG. 6): two-fold reduction; cell apoptosis (human progenitor cells; all concentrations of PPS (1, 2, 5, 10 micrograms/mL)): reduced; reduction of apoptosis (human progenitor cells; concentrations above 1 microgram/mL, incubated with IL-4 and IFN-gamma, FIG. 6): about 50%; 3H-glucosamine radioactivity incorporated into HA (media) ([1]; PPS 0.1 micrograms/mL (profile not shown)): 35.5%; levels of newly synthesized 3H-HA in the culture media ([1]; PPS 0.1 micrograms/mL and 1.0 micrograms/mL only): substantial increases; 3H-glucosamine radioactivity incorporated into HA (media) ([1]; PPS 1 microgram/mL, FIG. 27C): 49.6%; radioactivity in post digestion void volume fractions of PG monomers ([1]; PPS 1 microgram/mL, FIG. 27C): 50.4%; 3H-glucosamine incorporated into HA (media) ([1]; PPS 2.5 micrograms/mL): about 11%; PPS concentration of maximum synthesis of HA ([1]; micromass cultures, media): 1.0 micrograms/mL; biosynthesis of HA by cultured progenitor cells ([1]; micromass, FIG. 27): stimulates the biosynthesis of HA; 3H-glucosamine radioactivity found in the HA fractions (media) ([1]; the lower concentration of PPS (FIG. 27B)): 15.1%
